Earlier results as cited in patent US6365180B1, “Oral liquid compositions” (priority 1998, dated 2002).

Settings: enteric coated tablet versus aqueous solution

O=C(O)Cc1ccccc1Nc1c(Cl)cccc1Cl [sodium diclofenac]
oral bioavailability: more orally bioavailable from an enteric coated tablet than from an aqueous solution
